Measured values taken from patent US20240158348A1, “HERBICIDAL CYCLIC AMIDES N-SUBSTITUTED WITH A HALOALKYLSULFONYLANILIDE GROUP” (FMC Corporation, priority 2021, published 2024).

Tests used:
Format in all cases: in vivo
[1] = test system: galium (catchweed bedstraw, Galium aparine); test: Test C postemergence, galium; details: for Galium plant response rating: 31 g ai/ha Postemergence, visual injury, 0 to 100 scale (0 no effect, 100 complete control); for Plant response rating (0 to 100 scale), Galium: 125 g ai/ha Postemergence, 0 is no effect, 100 is complete control
[2] = test system: wheat (Triticum aestivum); test: Test C postemergence, wheat; details: for Wheat plant response rating: visual injury, 0 to 100 scale (0 no effect, 100 complete control)
In short: (§1)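 Ratings run from 0, meaning no effect, up to 100, meaning complete control, judged by eye against untreated plants. Treatment was a directed soil spray before emergence or a postemergence spray on 2–10 cm seedlings, with evaluation 10 or 12 days later.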

[3] = test system: ryegrass, Italian (Italian ryegrass, Lolium multiflorum); test: Test C preemergence, Italian ryegrass; details: 0 is no effect, 100 is complete control
In short: as §1

[4] = test system: ducksalad (Heteranthera limosa); test: Test D flooded paddy test, ducksalad; set-up: key: 0 = no effect, 100 = complete control; details: 250 g ai/ha, Flood; applied to paddy water at 2-leaf stage; visual rating after 13 days; scale 0 (no effect) to 100 (complete control)
In short: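 Pots holding 2-leaf-stage plants were flooded 3 cm deep and dosed via the water, which stayed at that level. After 13 greenhouse days, injury was scored visually against untreated controls, 0 (none) to 100 (complete control); a dash marks no test result.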

[5] = test system: oat, wild (wild oat, Avena fatua); test: Test C postemergence, wild oat; details: for Oat, Wild plant response rating: visual injury, 0 to 100 scale (0 no effect, 100 complete control); for Plant response rating (0 to 100 scale), Oat, Wild: 0 is no effect, 100 is complete control
[6] = test system: goosegrass (Eleusine indica); test: Test C postemergence, goosegrass; details: for Goosegrass plant response rating: visual injury, 0 to 100 scale (0 no effect, 100 complete control); for Plant response rating (0 to 100 scale), Goosegrass: 0 is no effect, 100 is complete control
In short: as §1

[7] = test system: blackgrass (Alopecurus myosuroides); test: Test C postemergence, blackgrass; details: visual injury, 0 to 100 scale (0 no effect, 100 complete control)
In short: as §1

[8] = test system: oat, wild (wild oat, Avena fatua); test: Test C preemergence, wild oat; details: 0 is no effect, 100 is complete control
In short: as §1

SMILES	Galium plant response rating [1]	Plant response rating (0 to 100 scale), Galium [1]	Wheat plant response rating ([2]; 31 g ai/ha Postemergence)	Wheat plant response rating ([2]; 125 g ai/ha Postemergence)	Plant response rating (0 to 100 scale), Ryegrass, Italian ([3]; 31 g ai/ha Preemergence)	Plant response rating (0 to 100 scale), Ryegrass, Italian ([3]; 125 g ai/ha Preemergence)	Plant response rating, Ducksalad [4]	Oat, Wild plant response rating ([5]; 31 g ai/ha Postemergence)	Plant response rating (0 to 100 scale), Oat, Wild ([5]; 125 g ai/ha Postemergence)	Goosegrass plant response rating ([6]; 31 g ai/ha Postemergence)	Plant response rating (0 to 100 scale), Goosegrass ([6]; 125 g ai/ha Postemergence)	Blackgrass plant response rating ([7]; 31 g ai/ha Postemergence)	Plant response rating (0 to 100 scale), Oat, Wild ([8]; 31 g ai/ha Preemergence)	Plant response rating (0 to 100 scale), Oat, Wild ([8]; 125 g ai/ha Preemergence)	Plant response rating (0 to 100 scale), Wheat ([2]; 125 g ai/ha Postemergence, 0 is no effect, 100 is complete control)	Oat, Wild plant response rating ([5]; 125 g ai/ha Postemergence)	Goosegrass plant response rating ([6]; 125 g ai/ha Postemergence)	Blackgrass plant response rating ([7]; 125 g ai/ha Postemergence)
Cc1cc(C)c(N2CCC(OC3CC3)C2=O)cc1NS(=O)(=O)C(F)(F)F (single isomer, unassigned) [Compound 29]	80	100	70	70	100	100	45	20	80	90	90	60	90	90				
Cc1cc(C)c(N2CCC(OC3CC3)C2=O)cc1NS(=O)(=O)C(F)(F)F (single isomer, unassigned) [Compound 30]	80	100	70	70	100	100	90	50	80	80	90	50	80	100				
Cc1cc(C)c(N2CC/C(=N\O)C2=O)cc1NS(=O)(=O)C(F)(F)F [Compound 10, 1,1,1-trifluoro-N-[5-[3-(hydroxyimino)-2-oxo-1-pyrrolidinyl]-2,4-dimethylphenyl]methanesulfonamide]	100	100	80		50	100	90	80	80	90	90	60	90	100	80			
Cc1cc(C)c(N(COC(=O)C(C)(C)C)S(=O)(=O)C(F)(F)F)cc1N1CCC(OCC2CC2(F)F)C1=O (stereo not drawn) [Compound 54]			30	70	0	90	90	10		60		30	0	80		80	90	90
Cc1cc(C)c(N(COC(=O)C(C)(C)C)S(=O)(=O)C(F)(F)F)cc1N1CCC(OCC2CC(F)(F)C2)C1=O (stereo not drawn) [Compound 55]			20	70	20	60	90	20		40		0	0	20		30	90	40
Cc1cc(C)c(N(COC(=O)C(C)(C)C)S(=O)(=O)C(F)(F)F)cc1N1CCC(OCC2CCC2)C1=O (stereo not drawn) [Compound 56]			0	70	30	80	85	10		0		0	0	0		10	60	20
